In patent US11180530B2, “Salt of phenylpropionamide derivative and preparation method therefor” (priority 2017, dated 2021):
Where a name gives a salt, the structure may show the parent alone. Read-outs that look alike come from different tables or passages of the source. Where a SMILES comes first, the peptide text is derived from it. [ ]: non-standard residue; d: D form. The star is where a group is joined. Gly(N-(2R-Ph-propyl)) = C[C@@H](CNCC(=O)O)c1ccccc1; Piperidin1yl(4-NH2,4-COOH) = NC1(C(=O)O)CCN(*)CC1

Tests used:
[1] = assay type: physicochemical
Procedure: Samples of the compound represented by formula (I) and acetate, hydrochloride, citrate and phosphate of the compound represented by formula (I) were respectively placed open and evenly spread, so that the stability of the samples were investigated under the conditions of room temperature, heating (40° C., 60° C.), illumination (4500Lux) and high humidity (RH75% and RH90%). The sampling period is 20 days.

[2] = assay type: physicochemical; details: for Long-term stability (conclusion in words): with/without nitrogen protection, amorphous samples
Procedure: Samples of acetate, hydrochloride, citrate and phosphate of the compound represented by formula (I) were subjected to a long-term accelerated stability investigation for 6 months under dark and sealed conditions (the inner package is a medicinal low-density polyethylene composite film and the outer package is aluminum foil), humidity (60% RH), temperature (4° C., 25° C.) and with/without nitrogen protection.

[3] = Canine pharmacokinetic test, intravenous administration; assay type: in vivo; details: Beagle dogs
From the text: Beagle dogs were used as test animals, and LC/MS/MS methods were used to determine the drug concentration in plasma of Beagle dogs at different time points after intravenous administration of the compound represented by formula (I). To study the pharmacokinetic behavior of the compound of the present invention in Beagle dogs and evaluate its pharmacokinetic characteristics.
3 male beagle dogs provided by Medicilon Pharmaceutical Technology (Shanghai) Co, Ltd in each group.
A proper amount of sample was weighted and 100% normal saline was added for dissolution.
Beagle dogs 3, male, for one group; intravenous administration with a volume of 2 ml/kg after fasting for one night.
For the intravenous administration group, 1.0 ml of blood was collected from jugular vein before and 5 mins, 15 mins, 0.5, 1.0, 2.0, 4.0, 8.0, 12.0, 24.0 hrs after administration, then placed in a heparinized test tube, centrifuged at 3500 rpm for 10 mins to separate plasma, and stored at −80° C.
LC/MS/MS method was used to determine the content of compound in Beagle dog plasma after intravenous administration.

[4] = Solubility (salt formation research); assay type: physicochemical
[5] = system: inflammatory pain induced by carrageenan in rats; assay: Carrageenan inflammatory pain model, plantar tenderness (Electronic Von Frey); assay type: in vivo, Wistar rats; details: for tenderness threshold: 30 min before test, model group 7.6 g
Procedure: Male Wistar rats for experiment purchased from Shanghai Slack Experimental Animal Co, Ltd. (Shanghai, China, certificate No. 2015000513408, license SOCK (Shanghai) 2012-0002, 150-180 g at the time of purchase, 5 rats/cage, 12/12 hour light/dark cycle adjustment, constant temperature of 23±1° C., humidity of 50-60%, free intake of water. After the animals were purchased, they were reared for more than 7 days to start the experiment.
1% λ-carrageenan mixed with physiological saline and stirred overnight, forming a jelly suspension.
The experimental method was improved according to the method in document 1 (Kazunari Nakao et al.). Before the inflammatory pain experiment, rats were randomly divided into the following groups according to body weight: blank control group, model group, 0.1 mg/kg group and 0.3 mg/kg group. There were 8 rats in each group. Inflammatory pain model was established by subcutaneous injection of 1% carrageenan (100 μl) into the foot pad of Wistar rats. After 4 hours, the rats were tested for plantar tenderness to evaluate their mechanical pain threshold, the rats were administrated single caudal vein administration (1 ml/kg) 30 min before the test, and the control group and model group were given the corresponding solvents.
Electronic Von Frey: UGO BASILE, type 38450.
The experimental data were expressed by Mean±standard deviation (S.D.). Statistical comparison was carried out with Excel software T test.

[6] = 6 months, 4° C., 25° C., 60% RH
[7] = 25° C., 60% RH, nitrogen protection, 1 month
[8] = 25° C., 60% RH, nitrogen protection, 3 months
[9] = 25° C., 60% RH, nitrogen protection, 6 months
[10] = 25° C., 60% RH, nitrogen protection, initial

Compound	Long-term stability (conclusion in words) [2, 6]	Purity % ([1]; 4500 Lux, 0 days (initial))	Purity % ([1]; 4500 Lux, 5 days)	Purity % ([1]; 4500 Lux, 10 days)	Purity % ([1]; 4500 Lux, 20 days)	Purity % ([2]; 4° C., 1 month)	Purity % ([2]; 4° C., 3 months)	Purity % ([2]; 4° C., 6 months)	Purity % ([2]; 4° C., initial)	Purity % [2, 7]	Purity % [2, 8]	Purity % [2, 9]	Purity % [2, 10]	Purity % ([2]; 25° C., 60% Rh, 1 month)	Purity % ([2]; 25° C., 60% Rh, 3 months)	Purity % ([2]; 25° C., 60% Rh, 6 months)	Purity % ([2]; 25° C., 60% Rh, initial)	other results
CC(C)C[C@@H](NC(=O)[C@@H](Cc1ccccc1)NC(=O)CNC[C@H](C)c1ccccc1)C(=O)N[C@H](CCCCN)C(=O)N1CCC(N)(C(=O)O)CC1 [Acetate (1:1)] (H-[Gly(N-(2R-Ph-propyl))][dF][dL][dK]-{Piperidin1yl(4-NH2,4-COOH)})	stable																	Stability (conclusion in words) ([1]; illumination, 40° C., 60° C.): degraded varying degrees
CC(C)C[C@@H](NC(=O)[C@@H](Cc1ccccc1)NC(=O)CNC[C@H](C)c1ccccc1)C(=O)N[C@H](CCCCN)C(=O)N1CCC(N)(C(=O)O)CC1 [Embodiment 9, 4-amino-1-((2R,5R,8R,14R)-2-(4-aminobutyl)-8-benzyl-5-isobutyl-4,7,10-trioxo-14-phenyl-3,6,9,12-tetraazapentadecan-1-acyl)piperidine-4-carboxylic acid] (H-[Gly(N-(2R-Ph-propyl))][dF][dL][dK]-{Piperidin1yl(4-NH2,4-COOH)})		96.50%	95.57%	94.27%	94.24%	99.51%	99.51%	98.57%	99.54%	99.52%	99.50%	98.54%	99.54%	99.46%	99.51%	99.51%	99.54%	Aspect ([2]; 4° C., 1 month): White; Aspect ([2]; 4° C., 3 months): White; Aspect ([2]; 4° C., 6 months): White; Aspect ([2]; 4° C., initial): White
CC(C)C[C@@H](NC(=O)[C@@H](Cc1ccccc1)NC(=O)CNC[C@H](C)c1ccccc1)C(=O)N[C@H](CCCCN)C(=O)N1CCC(N)(C(=O)O)CC1 [Embodiment 15, 4-amino-1-((2R,5R,8R,14R)-2-(4-aminobutyl)-8-benzyl-5-isobutyl-4,7,10-trioxo-14-phenyl-3,6,9,12-tetraazapentadecan-1-acyl)piperidine-4-carboxylic acid] (H-[Gly(N-(2R-Ph-propyl))][dF][dL][dK]-{Piperidin1yl(4-NH2,4-COOH)})		96.32%	96.07%	95.62%	95.76%	99.63%	99.62%	99.66%	99.64%	9.65%	99.62%	99.63%	99.64%	99.64%	99.63%	99.64%	99.64%	
CC(C)C[C@@H](NC(=O)[C@@H](Cc1ccccc1)NC(=O)CNC[C@H](C)c1ccccc1)C(=O)N[C@H](CCCCN)C(=O)N1CCC(N)(C(=O)O)CC1 [Embodiment 20, 4-amino-1-((2R,5R,8R,14R)-2-(4-aminobutyl)-8-benzyl-5-isobutyl-4,7,10-trioxo-14-phenyl-3,6,9,12-tetraazapentadecan-1-acyl)piperidine-4-carboxylic acid] (H-[Gly(N-(2R-Ph-propyl))][dF][dL][dK]-{Piperidin1yl(4-NH2,4-COOH)})		99.68%	97.76%	97.72%	97.15%													pharmacokinetic properties (in words) [3]: good; solubility (in words) [4]: low; Purity % ([1]; 40° C., 5 days): 97.60%; Stability (conclusion in words) ([1]; illumination and high temperature, 20 days, listed as free state): degraded greatly; increase range of tenderness threshold compared with the model group ([5]; 0.1 mg/kg i.v.): 79.5%; tenderness threshold ([5]; 0.1 mg/kg i.v. single): 13.7 g; increase range of tenderness threshold compared with the model group ([5]; 0.3 mg/kg i.v.): 204.5%; tenderness threshold ([5]; 0.3 mg/kg i.v. single): 23.2 g
CC(C)C[C@@H](NC(=O)[C@@H](Cc1ccccc1)NC(=O)CNC[C@H](C)c1ccccc1)C(=O)N[C@H](CCCCN)C(=O)N1CCC(N)(C(=O)O)CC1 [Phosphate (1:3)] (H-[Gly(N-(2R-Ph-propyl))][dF][dL][dK]-{Piperidin1yl(4-NH2,4-COOH)})	stable																	Stability (conclusion in words) ([1]; illumination and high temperature, 20 days): relatively stable or slightly degraded
CC(C)C[C@@H](NC(=O)[C@@H](Cc1ccccc1)NC(=O)CNC[C@H](C)c1ccccc1)C(=O)N[C@H](CCCCN)C(=O)N1CCC(N)(C(=O)O)CC1 [hydrochloride (1:3)] (H-[Gly(N-(2R-Ph-propyl))][dF][dL][dK]-{Piperidin1yl(4-NH2,4-COOH)})																		Stability (conclusion in words) ([1]; illumination condition): slightly degraded; Stability (conclusion in words) ([1]; other conditions (than illumination)): stable
